Laboratory results from patent US11524960B2, “Heterobicyclic inhibitors of MAT2A and methods of use for treating cancer” (AGIOS PHARMACEUTICALS, INC., priority 2018, dated 2022).

Target: T1, MAT2A homodimer (Homo sapiens, UniProt P31153)
T1 construct: inferred from Ni sepharose purification and imidazole elution; made in house; host or cells: Sf9 insect cells, recombinant baculovirus (Bac to Bac, pFASTBAC1)
Assay: Biochemical assay: inhibition of MAT2A (phosphate release, PiColorLock Gold)
Conditions: MAT2A IC50 score; read-out: Enzyme Inhibition (Example 275)
Description: Mat2A protein was expressed by recombinant baculovirus in SF9 infected cells using the Bac to Bac system cloned into the pFASTBAC1 vector (Invitrogen, Carlsbad, Calif.). Recombinant MAT2A was isolated from the cell lysate of 150 g of infected cells using HP Ni sepharose column chromatography. Recombinant MAT2A homodimer was eluted with 250 and 500 mM imidazole, and fractions containing MAT2A were identified by sodium dodecyl sulfate polyacrylamide gel electrophoresis and pooled.
For determination of the inhibitory potency of compounds against the MAT2A homodimer, protein was diluted to […] in assay buffer (50 mM Tris, pH 8.0, 50 mM KCl, 15 mM MgCl2, 0.3 mM EDTA, 0.005% [w/v] bovine serum albumin [BSA]). Test compound was prepared in 100% dimethyl sulfoxide (DMSO) at 50× the desired final concentration. […] of compound dilution was added to 40 μL of enzyme dilution and the mixture was allowed to equilibrate for 60 minutes at 25° C. The enzymatic assay was initiated by the addition of 10 μL of substrate mix (500 μM ATP, pH 7.0, 400 μM L-methionine in 1× assay buffer), and the mixture was incubated for a further 60 minutes at 25° C. The reaction was halted and the liberated phosphate released by the enzyme in stoichiometric amounts by the production of S-adenosyl methionine (SAM) was measured using the PiColorLock Gold kit (Innova Biosciences, UK). Absolute product amounts were determined by comparison to a standard curve of potassium phosphate buffer, pH 8.0.

T1 sequence (P31153 whole entry): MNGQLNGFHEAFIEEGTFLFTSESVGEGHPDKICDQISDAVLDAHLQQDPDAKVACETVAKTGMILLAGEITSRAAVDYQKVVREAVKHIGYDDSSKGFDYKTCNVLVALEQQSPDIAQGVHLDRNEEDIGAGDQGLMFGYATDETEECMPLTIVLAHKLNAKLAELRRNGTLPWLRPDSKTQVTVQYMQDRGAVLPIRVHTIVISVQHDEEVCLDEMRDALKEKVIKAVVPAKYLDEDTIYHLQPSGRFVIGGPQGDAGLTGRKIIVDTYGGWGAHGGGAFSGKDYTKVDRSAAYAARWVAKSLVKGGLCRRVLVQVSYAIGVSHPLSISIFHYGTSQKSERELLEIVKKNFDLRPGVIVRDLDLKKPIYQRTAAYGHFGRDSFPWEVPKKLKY

| IC50 | SMILES |
| --- | --- |
| 100 to 1000 nM | COc1ccc(N2Cc3cnc(NCC4CC4)nc3C3(CCN(Cc4cc[nH]n4)C3)C2=O)cc1 (stereo not shown) [Example 101, 1′-((1H-pyrazol-3-yl)methyl)-2-((cyclopropylmethyl)amino)-6-(4-methoxyphenyl)-5H-spiro[pyrido[4,3-d]pyrimidine-8,3′-pyrrolidin]-7(6H)-one] |
| 1000 to 10000 nM | COc1ccc(N2Cc3cnc(NCC4CC4)nc3C3(CCN(Cc4cn[nH]c4)C3)C2=O)cc1 (stereo not shown) [Example 102, 1′-((1H-pyrazol-4-yl)methyl)-2-((cyclopropylmethyl)amino)-6-(4-methoxyphenyl)-5H-spiro[pyrido[4,3-d]pyrimidine-8,3′-pyrrolidin]-7(6H)-one] |
| 100 to 1000 nM | COc1ccc(N2Cc3cnc(NCC4CC4)nc3C3(CCN(Cc4cscn4)C3)C2=O)cc1 (stereo not shown) [Example 103, 2-((cyclopropylmethyl)amino)-6-(4-methoxyphenyl)-1′-(thiazol-4-ylmethyl)-5H-spiro[pyrido[4,3-d]pyrimidine-8,3′-pyrrolidin]-7(6H)-one] |
| 1000 to 10000 nM | COc1ccc(N2Cc3cnc(NCC4CC4)nc3C3(CCN(C4CCCCC4)C3)C2=O)cc1 (stereo not shown) [Example 104, 1′-cyclohexyl-2-((cyclopropylmethyl)amino)-6-(4-methoxyphenyl)-5H-spiro[pyrido[4,3-d]pyrimidine-8,3′-pyrrolidin]-7(6H)-one] |
| 1000 to 10000 nM | COC(=O)C1CC(N2CCC3(C2)C(=O)N(c2ccc(OC)cc2)Cc2cnc(NCC4CC4)nc23)C1 (stereo not shown) [Example 105, methyl 3-(2-((cyclopropylmethyl)amino)-6-(4-methoxyphenyl)-7-oxo-6,7-dihydro-5H-spiro[pyrido[4,3-d]pyrimidine-8,3′-pyrrolidin]-1′-yl)cyclobutanecarboxylate] |
| 1000 to 10000 nM | O=C1N(c2cnoc2)Cc2cnc(NCC3CC3)nc2C12CCN(Cc1ccon1)C2 (stereo not shown) [Example 106, 2-((cyclopropylmethyl)amino)-1′-(isoxazol-3-ylmethyl)-6-(isoxazol-4-yl)-5H-spiro[pyrido[4,3-d]pyrimidine-8,3′-pyrrolidin]-7(6H)-one] |
| 1000 to 10000 nM | O=C1N(c2cnoc2)Cc2cnc(NCC3CC3)nc2C12CCN(Cc1cscn1)C2 (stereo not shown) [Example 107, 2-((cyclopropylmethyl)amino)-6-(isoxazol-4-yl)-1′-(thiazol-4-ylmethyl)-5H-spiro[pyrido[4,3-d]pyrimidine-8,3′-pyrrolidin]-7(6H)-one] |
| 1000 to 10000 nM | O=C1N(c2cnoc2)Cc2cnc(NCC3CC3)nc2C12CCN(Cc1n[nH]cc1Cl)C2 (stereo not shown) [Example 108, 1′-((4-chloro-1H-pyrazol-3-yl)methyl)-2-((cyclopropylmethyl)amino)-6-(isoxazol-4-yl)-5H-spiro[pyrido[4,3-d]pyrimidine-8,3′-pyrrolidin]-7(6H)-one] |
| 100 to 1000 nM | O=C1N(c2ccc3nc[nH]c3c2)Cc2cnc(NCC3CC3)nc2C12CCN(Cc1cc[nH]n1)C2 (stereo not shown) [Example 109, 1′-((H-pyrazol-3-yl)methyl)-6-(1H-benzo[d]imidazol-6-yl)-2-((cyclopropylmethyl)amino)-5H-spiro[pyrido[4,3-d]pyrimidine-8,3′-pyrrolidin]-7(6H)-one] |
| 100 to 1000 nM | COc1ccc(N2Cc3cnc(NCC(F)(F)F)nc3C3(CCN(Cc4cc[nH]n4)C3)C2=O)cc1 (stereo not shown) [Example 110] |
| 1000 to 10000 nM | CCNc1ncc2c(n1)C1(CCN(Cc3cc[nH]n3)C1)C(=O)N(c1ccc(OC)cc1)C2 (stereo not shown) [Example 111, 1′-((1H-pyrazol-3-yl)methyl)-2-(ethylamino)-6-(4-methoxyphenyl)-5H-spiro[pyrido[4,3-d]pyrimidine-8,3′-pyrrolidin]-7(6H)-one] |
| 100 to 1000 nM | COc1ccc(N2Cc3cnc(NC4CCC4)nc3C3(CCN(Cc4cc[nH]n4)C3)C2=O)cc1 (stereo not shown) [Example 112, 1′-((1H-pyrazol-3-yl)methyl)-2-(cyclobutylamino)-6-(4-methoxyphenyl)-5H-spiro[pyrido[4,3-d]pyrimidine-8,3′-pyrrolidin]-7(6H)-one] |
| 100 to 1000 nM | COc1ccc(N2Cc3cnc(NCC(C)C)nc3C3(CCN(Cc4cc[nH]n4)C3)C2=O)cc1 (stereo not shown) [Example 113, 1′-((1H-pyrazol-3-yl)methyl)-2-(isobutylamino)-6-(4-methoxyphenyl)-5H-spiro[pyrido[4,3-d]pyrimidine-8,3′-pyrrolidin]-7(6H)-one] |
| 100 to 1000 nM | COc1ccc(N2Cc3cnc(OCC4CC4)nc3C3(CCN(Cc4ccn[nH]4)C3)C2=O)cc1 (stereo not shown) [Example 114, 1′-((1H-pyrazol-3-yl)methyl)-2-(cyclopropylmethoxy)-6-(4-methoxyphenyl)-5H-spiro[pyrido[4,3-d]pyrimidine-8,3′-pyrrolidin]-7(6H)-one] |
| 100 to 1000 nM | COc1ccc(N2Cc3cnc(SCC4CC4)nc3C3(CCN(Cc4cc[nH]n4)C3)C2=O)cc1 (stereo not shown) [Example 115, 1′-((1H-pyrazol-3-yl)methyl)-2-((cyclopropylmethyl)thio)-6-(4-methoxyphenyl)-5H-spiro[pyrido[4,3-d]pyrimidine-8,3′-pyrrolidin]-7(6H)-one] |
| 1000 to 10000 nM | COc1ccc(N2Cc3cnc(NCC(F)(F)F)nc3C3(CCC(O)CC3)C2=O)cc1 (stereo not shown) [Example 116, 4-hydroxy-6′-(4-methoxyphenyl)-2′-((2,2,2-trifluoroethyl)amino)-5′H-spiro[cyclohexane-1,8′-pyrido[4,3-d]pyrimidin]-7′(6′H)-one] |
| 1000 to 10000 nM | COc1ccc(N2Cc3cnc(NCC(F)(F)F)nc3C3(CCN(c4nnc(N)s4)CC3)C2=O)cc1 [Example 117, 1-(5-amino-1,3,4-thiadiazol-2-yl)-6′-(4-methoxyphenyl)-2′-((2,2,2-trifluoroethyl)amino)-5′H-spiro[piperidine-4,8′-pyrido[4,3-d]pyrimidin]-7′(6′H)-one] |
| 1000 to 10000 nM | COc1ccc(CN2Cc3cnc(NCC4CC4)nc3C3(CCN(Cc4ccccc4)C3)C2=O)cc1 (stereo not shown) [Example 118, 1′-benzyl-2-((cyclopropylmethyl)amino)-6-(4-methoxybenzyl)-5,6-dihydro-7H-spiro[pyrido[4,3-d]pyrimidine-8,3′-pyrrolidin]-7-one] |
| 1000 to 10000 nM | COc1cc(CN2Cc3cnc(NCC4CC4)nc3C3(CCN(Cc4ccccc4F)C3)C2=O)ccn1 (stereo not shown) [Example 119, 2-((cyclopropylmethyl)amino)-1′-(2-fluorobenzyl)-6-((2-methoxypyridin-4-yl)methyl)-5,6-dihydro-7H-spiro[pyrido[4,3-d]pyrimidine-8,3′-pyrrolidin]-7-one] |
| 1000 to 10000 nM | O=C1N(Cc2ccn[nH]2)Cc2cnc(NCC3CC3)nc2C12CCN(Cc1ccccc1F)C2 (stereo not shown) [Example 120, 6-((1H-pyrazol-5-yl)methyl)-2-((cyclopropylmethyl)amino)-1′-(2-fluorobenzyl)-5,6-dihydro-7H-spiro[pyrido[4,3-d]pyrimidine-8,3′-pyrrolidin]-7-one] |
| 100 to 1000 nM | O=C1N(c2cnoc2)Cc2cnc(NCC3CC3)nc2C12CCN(Cc1ccccc1F)C2 (stereo not shown) [Example 121, 2-((cyclopropylmethyl)amino)-1′-(2-fluorobenzyl)-6-(isoxazol-4-yl)-5,6-dihydro-7H-spiro[pyrido[4,3-d]pyrimidine-8,3′-pyrrolidin]-7-one] |
| 100 to 1000 nM | O=C1N(c2cn[nH]c2)Cc2cnc(NCC3CC3)nc2C12CCN(Cc1ccccc1F)C2 (stereo not shown) [Example 122, 2-((cyclopropylmethyl)amino)-1′-(2-fluorobenzyl)-6-(1H-pyrazol-4-yl)-5,6-dihydro-7H-spiro[pyrido[4,3-d]pyrimidine-8,3′-pyrrolidin]-7-one] |
| < 100 nM | O=c1c(-c2ccc(Cl)cc2)c2nc(NCC(F)(F)F)ncc2cn1-c1ccc2nscc2c1 [Example 125, 6-(benzo[c]isothiazol-5-yl)-8-(4-chlorophenyl)-2-((2,2,2-trifluoroethyl)amino)pyrido[4,3-d]pyrimidin-7(6H)-one] |
| 1000 to 10000 nM | Cn1cc2cc(-n3cc4cnc(NCC(F)(F)F)nc4c(-c4ccc(Cl)cc4)c3=O)cnc2n1 [Example 126, 8-(4-chlorophenyl)-6-(2-methyl-2H-pyrazolo[3,4-b]pyridin-5-yl)-2-((2,2,2-trifluoroethyl)amino)pyrido[4,3-d]pyrimidin-7(6H)-one] |
| < 100 nM | CC(C)n1cnc2ccc(-n3cc4cnc(NCC(F)(F)F)nc4c(-c4ccc(Cl)cc4)c3=O)cc21 [Example 128, 8-(4-chlorophenyl)-6-(1-isopropyl-1H-benzo[d]imidazol-6-yl)-2-(2,2,2-trifluoroethylamino)pyrido[4,3-d]pyrimidin-7(6H)-one] |
| < 100 nM | O=c1c(-c2ccc(Cl)cc2)c2nc(NCC(F)(F)F)ncc2cn1-c1ccn2nccc2c1 [Example 130, 8-(4-chlorophenyl)-6-(pyrazolo[1,5-a]pyridin-5-yl)-2-(2,2,2-trifluoroethylamino)pyrido[4,3-d]pyrimidin-7(6H)-one] |
| < 100 nM | O=c1c(-c2ccc(Cl)cc2)c2nc(NCC(F)(F)F)ncc2cn1-c1ccc2nnccc2c1 [Example 131, 8-(4-chlorophenyl)-6-(cinnolin-6-yl)-2-(2,2,2-trifluoroethylamino)pyrido[4,3-d]pyrimidin-7(6)-one] |
| < 100 nM | O=c1c(-c2ccc(Cl)cc2)c2nc(NCC(F)(F)F)ncc2cn1-c1ccc2nccn2c1 [Example 134, 8-(4-chlorophenyl)-6-(imidazo[1,2-a]pyridin-6-yl)-2-(2,2,2-trifluoroethylamino)pyrido[4,3-d]pyrimidin-7(6H)-one] |
